The record followed here is ChEMBL document CHEMBL1149864, “Benzofused N-substituted cyclic enediynes: activation and DNA-cleavage potential” (Bioorg Med Chem, 2008).

As usually defined, the half-life is the time needed for the level to fall by half in the phase considered.

A short description of data set [1]: Chemical stability assessed as half life at 70 degC. Type of data set: physicochemical.
Data set [2] has as its system Escherichia coli. The experiment in a line: Induction of Escherichia coli pBR322 DNA cleavage assessed as generation of form 3 at 20 uM at pH 8.0 after 24 hrs.
A short description of data set [3]: Chemical stability assessed as half life at 30 degC. Type of data set: physicochemical.
Data set [4] concerns Escherichia coli. The experiment in a line: Induction of Escherichia coli pBR322 DNA cleavage at 0.4 uM at pH 7.5 after 24 hrs.
Data set [5] concerns Escherichia coli. The experiment in a line: Induction of Escherichia coli pBluescript SK+ DNA cleavage assessed as generation of form 3 at 20 uM at pH 8.0 after 48 hrs.
Data set [6] deals with Escherichia coli. The experiment in a line: Induction of Escherichia coli pBR322 DNA cleavage at 0.4 uM at pH 8.0 after 24 hrs.
Data set [7] concerns Escherichia coli. Description: Induction of Escherichia coli pBR322 DNA cleavage assessed as generation of form 3 at 20 uM at pH 8.0 after 12 hrs.
The nature of data set [8]: Chemical stability assessed as half life at 50 degC. Type of data set: physicochemical.
Data set [9] concerns Escherichia coli. Description: Induction of Escherichia coli pBluescript SK+ DNA cleavage assessed as generation of form 3 at 20 uM at pH 8.0 after 12 hrs.
Data set [10] has as its system Escherichia coli. Description: Induction of Escherichia coli pBR322 DNA cleavage at 0.4 uM at pH 8.5 after 24 hrs.
For data set [11], the system named is Escherichia coli. The experiment in a line: Induction of Escherichia coli pBR322 DNA cleavage assessed as generation of form 3 at 20 uM at pH 8.0 after 48 hrs.
The nature of data set [12]: Chemical stability assessed as half life at 60 degC. The class given is physicochemical.

Active and inactive are the calls of the source.

For the molecule `O=[N+]([O-])c1ccc(S(=O)(=O)N2CC#Cc3cc([N+](=O)[O-])c([N+](=O)[O-])cc3C#CCC2)cc1`, the half-life in [1] is 9.5 h.
As for `Cc1ccc(S(=O)(=O)N2CC#Cc3ccccc3C#CCC2)cc1`, the half-life in data set [1] is 48 h.
As to `C1#Cc2ccccc2C#CCNCC1.Cc1ccc(S(=O)(=O)O)cc1`, the result in the data set with Escherichia coli [2], in the data set with Escherichia coli [4], in the data set on Escherichia coli [6], with Escherichia coli [7] and with Escherichia coli [10] was Active. In addition, the half-life in [3] is 770 h; in data set [8] it was 130 h. The outcome in the data set with Escherichia coli [5] and with Escherichia coli [9] was inactive.
Turning to `O=[N+]([O-])c1ccc2c(c1)C#CCCNCC#C2`, the result in the data set with Escherichia coli [2] and in the data set on Escherichia coli [11] was Active.
In the case of `O=[N+]([O-])c1ccc(S(=O)(=O)N2CC#Cc3ccc([N+](=O)[O-])cc3C#CCC2)cc1`, the figures for the half-life in [12] and in data set [1] were 138 h and 12 h, respectively.
